From EPA's ToxValDB 9.5 (doi:10.2903/j.efsa.2006.53r)
In brackets after ≈: the same amount, converted by molar mass.

How the values were obtained:
Canidae = settings: Dog Other, organ weight
Tagia sp. = settings: acute; mortality
Aphidius rhopalosiphi = settings: not reported; mortality
Apis mellifera = settings: acute, mortality
Colinus virginianus = settings: for LD50: acute, oral, mortality

`COCC(C)N(C(=O)CCl)c1c(C)csc1C` (stereo unspecified) [Dimethenamid] gave an NOAEL (Canidae; chronic, duration: 1 years) of 2 mg/kg-day, an NOAEL (Canidae; subchronic, duration: 90 days) of 4.3 mg/kg-day and an LD50 (Rattus norvegicus; acute, oral, mortality) of 397 mg/kg. The NOAEL (Rattus norvegicus; reproduction developmental, growth) was 33.3 mg/kg-day, the NOAEL (Rattus norvegicus; short-term, duration: 4 days, oral, gavage, organ weight) was 25 mg/kg-day and the LC50 (Tagia sp.) was 294 mg/kg. It also gave an LEL (Aphidius rhopalosiphi) of 1010 g/ha, an LD50 (Apis mellifera; duration: 48 hours, dermal) of 94 µg/piece and an LD50 (Apis mellifera; oral, unspecified) of 1000 µg/piece. For the same compound, the LC50 (Daphnia magna; acute, duration: 48 hours, mortality) was 12 µg/mL (≈ 43.5 µM), the NOEC (Daphnia magna; chronic/long-term, duration: 21 days) was 0.68 mg/L and the LD50 (Colinus virginianus; diet) was 1200 mg/kg. It also gave an LD50 (Colinus virginianus) of 1910 mg/kg, an NOAEL (Colinus virginianus; reproduction developmental) of 114 mg/kg-day and an LC50 (Oncorhynchus mykiss; acute, duration: 96 hours, mortality) of 2.6 µg/mL (≈ 9.43 µM). For the same compound, the NOEC (Oncorhynchus mykiss; chronic/long-term, duration: 90 days, growth) was 0.12 mg/L.
